Consider two compounds from article PMC8557901 (Microbiology Spectrum, 2021).

In experiment [1] the test system is P. falciparum strain K1 in RBC. The experiment is described as follows: In vitro chemosensitivity assay, blood stage P. falciparum K1 (SYBR green I). It is filed as cell-based. The following applies: Plasmodium falciparum, K1, 72 h, read-out: EC50 (μM) for P. falciparum strain K1 in RBC. As for the experimental part: Maintenance in continuous culture was done as described previously by Trager and Jensen ([46]). Cultures were maintained in fresh A+ human erythrocytes (EFS [French Blood Bank]) at 2.5% hematocrit in complete medium (RPMI 1640 with 25 mM HEPES, 25 mM NaHCO3, 10% A+ human serum) at 37°C under a reduced-O2 atmosphere (gas mixture of 10% O2, 5% CO2, and 85% N2). Parasitemia was maintained daily between 1% and 3%. The P. falciparum drug susceptibility test was carried out by comparing quantities of DNA in treated and control cultures of parasites in human erythrocytes according to a SYBR green I fluorescence-based method ([50]) using a 96-well fluorescence plate reader. Compounds, previously dissolved in DMSO (final concentration, less than 0.5% vol/vol), were incubated in a total assay volume of 200 μl of synchronized culture suspension (2% hematocrit and 0.4% parasitemia) for 72 h in a humidified atmosphere (85% N2, 10% O2, and 5% CO2) at 37°C in 96-well flat-bottom plates. Duplicate assays were performed for each sample. After incubation, plates were frozen at −20°C for 24 h. Then, the frozen plates were thawed for 1 h at 37°C. Fifteen microliters of each sample was transferred to 96-well flat-bottom black plates (Greiner Bio-one) already containing 15 μl of the SYBR green I lysis buffer (2× SYBR green I, 20 mM Tris base, pH 7.5, 20 mM EDTA, 0.008% [wt/vol] saponin, 0.08% [wt/vol] Triton X-100). […] Plates were incubated for 15 min at 37°C and then read on a Tecan Infinite F-200 spectrophotometer with excitation and emission wavelengths at 485 and 535 nm, respectively. […] EC50K1 values represent the mean values calculated from three independent experiments.

The test system of experiment [2] is P. falciparum F32-ART5 quiescent parasites. Kind of experiment: Quiescent-stage survival assay (QSA). The following applies: artemisinin 3 μM 6 h then artemisinin + CQ 200 nM versus artemisinin alone. It is filed as cell-based, Plasmodium falciparum. As for the experimental part:
(§1) The Plasmodium falciparum artemisinin-resistant strain F32-ART5 and its twin artemisinin-sensitive line F32-TEM ([30], [31]) were cultivated at 37°C with 5% CO2 in human red blood cells (EFS [French Blood Bank]) diluted to 2% hematocrit in RPMI 1640 medium supplemented with 5% human serum (EFS) as previously reported ([47]).
Chemosensitivity evaluation of artemisinin-resistant parasites at the quiescent stage was performed on the F32-ART5 strain using the quiescent-stage survival assay (QSA) ([33]). D-Sorbitol-synchronized ring-stage parasites at 3% parasitemia (2% hematocrit) were first exposed to 3 μM artemisinin for 6 h to induce quiescence of artemisinin-resistant parasites. Then, quiescent parasites were exposed or not (as a control condition) to 2.5 μM M1 for 24 h. After drug exposure, parasite cultures were washed with RPMI 1640 medium and replaced in normal drug-free culture conditions. The time to parasite recrudescence was determined as the time required to reach initial parasitemia. […] In each experiment, results obtained with the condition “artemisinin 3 μM 6 h/artemisinin 3 μM 24 h” were compared to those obtained with the condition “artemisinin 3 μM 6 h/(artemisinin 3 μM + M1 2.5 μM) 24 h” in order to determine the delay in recrudescence time. […] Each experiment was carried out three times independently, and data statistically analyzed. […]

The subject of experiment [3] is Plasmodium berghei. Further details: method as in PMID 25791675. The following applies: 2.5 mg/kg twice a day for 3 days; untreated group 9%; cited from earlier work.
The subject of experiment [4] is P. falciparum F32-ART5 and F32-TEM. Kind of experiment: Recrudescence assay F32-ART5 versus F32-TEM. It counts as cell-based, Plasmodium falciparum. The following applies: 48 h drug exposure; M1 2.5 and 10 μM; artemisinin 18 μM. As for the experimental part:
as §1
A recrudescence assay was performed to evaluate the ability of the F32-ART5 parasite line to survive drug exposure in comparison to that of the F32-TEM parasite line ([30], [31]) in order to evaluate the risk of cross-resistance between artemisinin and M1. D-Sorbitol-synchronized ring-stage parasites at 3% parasitemia (2% hematocrit) were exposed to the drug for 48 h. After drug exposure, parasite cultures were washed with RPMI 1640 medium and replaced in normal drug-free culture conditions. The time to parasite recrudescence was determined as the time required to reach initial parasitemia. […] Each experiment, performed in parallel for F32-ART5 and F32-TEM cultivated under the same conditions to generate paired results, was carried out at least three times independently and data statistically analyzed.
A statistical analysis (log-rank test) was carried out on data from the recrudescence assay and the QSA using a Kaplan-Meier survival analysis considering censored data. The final event was defined as the time necessary for cultures to reach initial parasitemia. […]

Experiment [5] has as its system P. falciparum F32-TEM (artemisinin-sensitive). The experiment is described as follows: Standard in vitro chemosensitivity assay (hypoxanthine uptake), F32-TEM. It is filed as cell-based. The following applies: Plasmodium falciparum, F32, 48 h, read-out: Mean EC50 ± SD. As for the experimental part:
as §1
(§2) In vitro susceptibility of P. falciparum parasites was determined by using the standard hypoxanthine uptake inhibition assay as described previously ([51]) with some modifications ([52]). After D-sorbitol treatment, parasites synchronized at the ring stage were exposed for 48 h, with [^3H]hypoxanthine (Perkin Elmer, France), to a range of concentrations of the different tested compounds. […] Each result represents 3 independent experiments.

For experiment [6], the system named is P. falciparum F32-ART5 (artemisinin-resistant). The experiment is described as follows: Standard in vitro chemosensitivity assay (hypoxanthine uptake), F32-ART5. It is filed as cell-based. The following applies: Plasmodium falciparum, F32, 48 h, read-out: Mean EC50 ± SD. How it is done:
as §1, §2

`CCN(CC)CCCC(C)Nc1ccnc2cc(Cl)ccc12` (stereo not drawn) [Chloroquine, reference compound]: the 50% effective concentration (EC50) in experiment [1] turned out to be 0.8 µM. For the same compound, the “difference in recrudescence times versus artemisinin alone” value in experiment [2] is reported as “no difference in the recrudescence times”. The “parasitemia at day 4” value in experiment [3] is reported as 1.5%.

With `C[C@@H]1CC[C@H]2[C@@H](C)C(=O)O[C@@H]3O[C@@]4(C)CC[C@@H]1[C@]32OO4` [Artemisinin, reference compound], in experiment [4], the “recrudescence of F32-ART5 versus F32-TEM (cross-resistance with artemisinin)” value was “faster recrudescence for F32-ART5 than for F32-TEM”. Further, the results for the EC50 in experiment [5] and in experiment [6] were 11.1 ± 1.6 nM and 11 ± 0.5 nM, respectively.

As a reminder, the EC50 is the concentration that produces a half-maximal response.
